Experimental findings from patent publication US11015179B2, “Peptide having anti-viral effect and composition containing same” (priority 2015, dated 2021) are described below.

In assay [1] the test system is HBV. Briefly: Antiviral effect with HSP90 blockage in whole HBV wild-type genome-transfected HepG2 cell line (real-time quantitative PCR). In kind it is cell-based, hepatitis B virus. The note with it: HepG2, ETV 30 nM, 24 hours. How it is done:
PEP1 has been known to pass through a cell membrane from the outside to the inside of the cells in a shuttle method via HSP90. To confirm if the antiviral effect is reduced in cells by blocking the HSP90 activity based on such a mechanism, in this research, a HepG2 cell line was transiently transfected with the whole HBV wild-type genome, treated with anti-GAPDH, anti-HSP (1 ug/ml, blockage of HSP90 activity) and 17-AAG (1 μM) for 1 hour, ant then with PBS (0.5%), entecavir (ETV, 30 nM) and PEP1 (5 μM) for 24 hours. Subsequently, the supernatant was collected and treated with PEG6000 to precipitate the virus, and viral DNA was extracted and subjected to real-time quantitative PCR to observe an antiviral effect. All experiments are independently performed in triplicate, and a statistical significance test was performed using one-way ANOVA through the Tukey's Multiple Comparison Test. ** p<0.05 versus PBS, and ## p<0.05 versus None.

The subject of assay [2] is HBV. Nature of the assay: HBsAg ELISA in whole HBV W4P genome-transfected HepG2 cell line. Type of assay: cell-based, hepatitis B virus. The note with it: 48 hours. A general note: ELISA stands for enzyme-linked immunosorbent assay.
Assay [3] deals with HBV. Briefly: Virion production (real-time PCR of HBV DNA) in W4P-transfected HepG2 cell line. In kind it is cell-based, hepatitis B virus. As for the experimental part: (§1) To observe the potential for virion proliferation of whole HBV containing W4P, virion DNA was extracted from the entire supernatant while the medium was changed every 24 hours by the above-described method, and subjected to real-time quantitative PCR using a Quantitech SYBR Green Master-Mix kit (Qiagen). The entire supernatant was centrifuged using an ultracentrifuge equipped with an SW28 swing rotor at 20,000 rpm for 2 hours to precipitate the virus, and the precipitated viral pellets were suspended with 200 μl of sterilized DW. […] Real-time PCR was performed at 40 cycles of 5 min at 95° C., 15 sec at 94° C., and 15 sec at 60° C. using the Exicycler™ 96 Real-Time Quantitative Thermal Block System (Bioneer Co., Korea), and the temperature was increased from 53° C. to 90° C. by modulating to 0 sec at 95° C., 30 sec at 53° C. and modulating by 0.1° C. per second to analyze a melting curve.
To observe the virion production in the supernatant after the inhibition of HBsAg secretion by the PEP1 peptide was observed, virions were collected from the supernatant obtained by the above-described method using PEG 6000, and HBV DNA was obtained using a virus DNA prep kit (Intron, Korea), and then quantified by real-time PCR. […]
(In general: Real-time PCR tracks product formation cycle by cycle.)

In assay [4] the test system is HBV. Nature of the assay: Virion production (real-time PCR of HBV DNA) in W4P-transfected Huh7 cell line. The note with it: Huh7, 10 μM, 48 hours. Type of assay: cell-based, hepatitis B virus. How it is done: as §1
To observe the virion production in the supernatant after the inhibition of HBsAg secretion by the PEP1 peptide was observed, virions were collected from the supernatant obtained by the above-described method using PEG 6000, and HBV DNA was obtained using a virus DNA prep kit (Intron, Korea), and then quantified by real-time PCR.

The next assay relates to IL-6. Nature of the assay: IL-6 ELISA in culture supernatant of W4P-transfected Huh7 cell line. Type of assay: cell-based, human. The note with it: Huh7, 10 μM, 48 hours. As for the experimental part: It has been reported that HBV preS1 W4P variants are closely related to production of IL-6, which is an inflammation regulatory cytokine. Therefore, to observe an anti-inflammatory effect of PEP1 in IL-6-induced cell lines, 48 hours after the whole HBV W4P genome was injected into HepG2 and Huh7 cell lines which were then treated with 10 μM PEP1 and 10 μM 3TC, respectively, IL-6 levels in the culture supernatants were observed through ELISA.

Assay [5] concerns HBV. Type of assay: in vivo, mice. The note with it: caudal vein twice a week; PEP1 50 μg/kg, 3TC 500 μg/kg. How it is done:
HBV transgenic mice were prepared by injecting a 1.1-fold HBV base sequence comprising a full open reading frame (ORF) into the fertilized eggs of the mice through microinjection. The base sequence of HBV used in the research was obtained using a pHY92-W4P plasmid. The pHY92-W4P plasmid was digested with EcoRi before injection into the fertilized eggs of the mice, and finally a base sequence of 3.9 kb in length was used for microinjection. Produced subjects were selected through PCR using a specific sequence of HBsAg. PCR-positive subjects were selected according to the concentrations of serum HBsAg and HBeAg, and finally used as PCR-positive, HBsAg-positive, and HBeAg-positive mice in the study. These mice were backcrossed with C57BL/6 mice to produce heterologous HBV transgenic mice.
HBsAg levels in the HBV-transgenic mice were determined using an HBsAg ELISA kit (BIOKIT, Germany). To quantify HBV titers, total DNA was extracted and confirmed by real-time PCR.
In addition, HBV virion DNA was obtained from mouse serum and subjected to real-time PCR.

The test system of the next assay is HSP 90, SOD, ERK, JAK2. Nature of the assay: Liver protein expression (western blotting) in whole HBV W4P genome-transgenic mice. In kind it is in vivo. Conditions: week 8; PEP1 50 μg/kg, 3TC 500 μg/kg. How it is done: To observe a change in protein expression affecting the antiviral effect by the PEP1 peptide, transgenic mice prepared by injecting the whole HBV W4P variant genome were used. The PEP1 peptide was injected into the caudal vein of the mouse at a concentration of 50 μg/kg twice a week. As a control group, 500 μg/kg of 3TC was injected like the PEP1 peptide. On week 8, the whole blood was collected from the mouse, and proteins were extracted from the liver of the mouse and subjected to western blotting to observe expression of the proteins.
A general note: In western blotting, separated proteins are transferred to a membrane and probed.

Another assay deals with immune cells. Briefly: Distribution of immune cells (FACS) in whole HBV W4P genome-transgenic mice. In kind it is in vivo. The note with it: 3TC. How it is done:
PEP1 is an HLA Class II-binding peptide derived from telomerase, and a 16-amino acid peptide triggering cytotoxic T-cell and helper T-cell immune responses. Therefore, to observe a change in the distribution of renal immune cells by the PEP1 peptide, transgenic mice were prepared by injecting the whole HBV W4P variant genome, on week 4, the whole blood was collected from the mice, and immune cells were isolated from the kidneys of the mice and then stained with lymphocyte markers (B cells (CD19B), CD4, CD8, NK1.1 cells) and myeloid cell markers (DC (CD11c), a macrophage marker (F4/80), a neutrophil marker (Ly-6G), a monocyte marker (Gr1)) according to an extracellular cell surface staining method for FACS analysis.

Another assay concerns INFγ. Nature of the assay: INFγ activity of immune cells (FACS) in whole HBV W4P genome-transgenic mice. Type of assay: in vivo. The note with it: 8 weeks; PEP1 50 μg/kg, 3TC 500 μg/kg; HBsAg stimulation 72 hours. As for the experimental part:
INF, which is a hormone-like cytokine, is secreted from immune cells against a virus. INFs are present in three types such as α, β and γ, and among these, INFγ is known to be critical for inhibiting the hepatitis B virus (HBV) in humans. Therefore, to observe the activity of INFγ, as an immune response, by the PEP1 peptide, 8 weeks after 50 μg/kg of the PEP1 peptide and 500 μg/kg of 3TC were injected into the caudal vein of each of transgenic mice prepared by injection of the whole HBV W4P variant genome twice a week, the whole blood was collected and a kidney was extracted from the mouse, and then immune cells were isolated and treated with HBsAg for stimulation. Seventy two hours after the stimulation, the INFγ cytokine was accumulated in cells by Brefeldin A and stained by an intracellular staining method for FACS analysis.

The test system of another assay is macrophages. Briefly: Differentiation of macrophages (FACS) in whole HBV W4P genome-transgenic mice. Type of assay: in vivo. Conditions: eight weeks; PEP1 50 μg/kg, 3TC 500 μg/kg; vs PBS. How it is done:
Therefore, to observe if the PEP1 peptide is able to differentiate macrophages to M1, eight weeks after PBS, 50 μg/kg of the PEP1 peptide and 500 μg/kg of 3TC were injected into the caudal vein of each of transgenic mice prepared by injecting the whole HBV W4P variant genome twice a week, the whole blood was collected from the mouse and a kidney of the mouse was extracted, immune cells were isolated and stained with a macrophage marker (F4/80) and M1 marker MHCII through an extracellular cell surface staining method. Afterward, FACS analysis was carried out.

Each structure is given as a SMILES string.

For `C=C1[C@H](CO)[C@@H](O)C[C@@H]1n1cnc2c(=O)[nH]c(N)nc21` [ETV, entecavir], the “Antiviral effect in untreated cells or cells treated with GAPDH, HSP90 or 17-AAG” value in the assay on HBV [1] was “no difference in the antiviral effect”.

As for `Nc1ccn([C@@H]2CS[C@H](CO)O2)c(=O)n1` [3TC, ramivudine], in the assay on HBV [2] (3TC 10 μM, cell line not specified (Huh7, Huh7.5, HepG2 tested)), the “HBsAg inhibitory effect vs control group” value is given as “exhibited higher inhibitory effects than the control group”. Further, the “HBsAg in both pellets and supernatants” value in the assay on HBV [2] (HepG2, 3TC 0.01-100 μM) is on record as “showed inhibitory effects according to concentration”. Further, the “Virions produced in the supernatant” value in the assay with HBV [3] (HepG2, 10 μM, 48 hours) is “inhibitory effect”. Besides, in the assay on HBV [3] (HepG2, 3TC), the “Virion synthesis according to concentration” value is on record as “has an inhibitory effect on virion synthesis according to concentration”. Also, in the assay on HBV [4], the “Virions produced in the supernatant” value is reported as “inhibitory effect”. Besides, in the assay with IL-6, the “IL-6 level in culture supernatant” value is “no effect on production of IL-6 cytokine”. In addition, in the assay with HBV [5], the “Level of HBsAg in serum, reduction effect on week 8” value is “no such effect”; the “Level of HBsAg in serum, up to 4 weeks” value is “neither the PEP1 peptide nor 3TC showed a reduction effect”; the “Serum virion level, inhibitory effect on week 8” value was “approximately 52%”; the “Serum virion level, week 4” value is given as “did not show virion inhibitory effects”. In the assay with HSP 90, SOD, ERK, JAK2, the “JAK2 phosphorylation in liver” value is recorded as “inhibited phosphorylation” and the “Protein phosphorylation of ERK in liver” value is “inhibited phosphorylation”. Moreover, the “Distribution of immune cells” value with immune cells is listed as “did not have an influence on the distribution of immune cells”. In the assay with INFγ, the “INFγ activity of CD4, CD8 and NK1.1 cells” value is “slightly increased activity”. Moreover, in the assay with macrophages, the “Distribution of macrophages among myeloid-derived cells” value is given as “did not show a difference” and the “Number of cells differentiated to M1” value is “did not show a difference”.
